Like-named read-outs stand apart in the source and are kept apart here. Where a SMILES comes first, the peptide text is derived from it. Bridges are numbered along the chain shown (N, C = ends). [ ]: non-standard residue; d: D form. Dap = NC[C@H](N)C(=O)O

The text below walks through data of patent US7329644B2, “Preparation and use of cyclic and branched peptides and their labelled derivatives as therapeutic agents, cholecystokinin agonists or antagonists, and diagnostic agents to identify and locate tumours” (Bracco Imaging S.p.A., priority 2001, dated 2008).

Assay [1] deals with T1, fragment 1-47 of type A cholecystokinin receptor, CCKA-R(1-47) (Homo sapiens, UniProt P32238).
T1 construct: Fragment 1-47 of type A receptor, CCKA-R(1-47), and the compound of formula (IV), both synthesised by solid-phase peptide synthesis methods, were used; made in house; host or cells: chemical solid-phase peptide synthesis (no expression host)
T1 sequence (P32238 1-47): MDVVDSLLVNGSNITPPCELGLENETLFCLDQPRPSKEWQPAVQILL
Briefly: Fluorescence spectroscopy binding to receptor fragment CCKA-R(1-47). An excerpt: The binding between the compound prepared as described in example 1 and fragment 1-47 of type A cholecystokinin receptor was studied with fluorescence spectroscopy. Although the compound of formula (IV), as it has no sulphate functions on the tyrosine residue, should have greater affinity for type B cholecystokinin receptor, the experiment performed and the results obtained are entirely legitimate, because the receptor fragment used contains no residues (Arg 197) which are known to be responsible for interaction with the sulphate group.
Fragment 1-47 of type A receptor, CCKA-R(1-47), and the compound of formula (IV), both synthesised by solid-phase peptide synthesis methods, were used. Reference should be made to example 1 for the synthesis of compound (IV); for the synthesis of the receptor fragment, see R. Ragone, 47-53, 56, 2001, Biopolymers).
The interaction between receptor fragment CCKA-R(1-47) and compound (IV) was observed by monitoring the tryptophan fluorescence. The emission spectra were recorded at room temperature using a Jasco FP-750 spectrofluorimeter at the excitation wavelength of 296 nm to excite the tryptophan selectively. Small aliquots of a concentrated solution of compound (IV) dissolved in phosphate buffer at pH 7.2 were added to a fixed volume of a solution of CCKA-R(1-47) dissolved in the same solvent, in the presence of a 10 mM solution of sodium dodecylsulphate micelles, used to mimic the cell membrane. […]
Increasing quantities of compound of formula (IV) were added from a concentrated master solution containing 10 mM SDS micelles.
As will be seen in FIG. 2, which exemplifies a typical saturation curve, the fluorescence signal is gradually quenched as a result of the binding. The experiments were performed at various receptor concentrations, and fluorescence quenching was always observed. […] To distinguish the modifications in fluorescence caused by the binding, the contributions to fluorescence of the receptor and peptide isolated were subtracted, and a small variation in fluorescence compared with the value measured was obtained.

The subject of assay [2] is type A cholecystokinin receptor. Briefly: Intracellular calcium response in myenteric neurones (confocal microscopy). The note with it: perfusion for 60 seconds. In kind it is cell-based. An excerpt:
Biological tests have been carried out to confirm the activity of the cyclic compound of formula (IV), using neurone cells which express type A cholecystokinin receptor. […] Both these compounds should show a lower level of activity than the corresponding analogs containing the sulphate group on the tyrosine residue. The biological activity tests involved the use of myenteric neurones as receptor-expressing cells, and the use of a confocal microscope with a suitable software package to measure peptide activity. The tests were based on the following assumptions: • 1) myenteric neurones (of the intestinal wall) normally express type A CCK receptor • 2) binding between CCK and the receptor induces excitation of the cell (change in membrane potential), which can be recorded with electrophysiology studies • 3) the cell excitation is coupled to the passage of calcium from the outside to the inside of the cell through specific membrane channels • 4) if the calcium is rendered fluorescent (using calcium chelators which modify the emission wavelength if they are excited at a particular wavelength), the increased concentration of the intracellular calcium in response to a stimulus can be recorded • 5) confocal laser microscopy with the aid of specific software therefore enables these phenomena to be recorded, and the fluorescence to be converted into the intracellular calcium concentration.
For orientation: A change in cytosolic calcium serves as a functional read-out for many receptors and channels.

A word on the Kd: it is the equilibrium constant for the complex coming apart. With `CSCC[C@@H]1NC(=O)[C@H](Cc2c[nH]c3ccccc23)NC(=O)[C@@H](NC(=O)[C@H](CCSC)NC(=O)[C@H](Cc2ccc(O)cc2)NC(=O)[C@@H](N)CC(=O)O)CNC(=O)[C@H](CCCCN)NC(=O)[C@H](Cc2ccccc2)NC(=O)[C@H](CC(=O)O)NC1=O` [(IV)] (H-DYM[Dap]WMDFK; lactam 4-C), the Kd is 50 to 200 nM in assay [1] (experiments at various receptor concentrations, read-out: Kd range estimated by fitting procedures); 120 nM in assay [1] (experiments at various receptor concentrations, standard deviation ±27 nM, read-out: Kd mean); 255 nM in assay [1] (receptor concentration 2.6 μM, 10 mM phosphate buffer pH 7.2, 10 mM SDS micelles, fluorescence at 335 nm, read-out: Kd (binding curve of FIG. 2)).
In the case of “Asp-Tyr-Met-Gly-Trp-Met-Asp-Phe-amide [CCK8]”, the intracellular calcium concentration result in assay [2] is “induce an increase in the intracellular calcium concentration”.
